The source of these data is US20250205356A1, “POLYMER-DRUG CONJUGATES” (PRIMELINK BIOTHERAPEUTICS (SHENZHEN) CO., LTD, priority 2022, published 2025).

In series [1] the test system is Trop2 positive SKBR-3 cells. Put plainly: Antibody mediated internalization in Trop2 expressing tumor cells, FACS. The settings on record: 100 nM. It is filed as cell-based. As for the experimental part: The Trop2 positive cell line SKBR-3 cells (Breast cancer, ATCC No. HTB30) were used for the following internalization assay. The culture conditions are the same as in Example 21.
(§1) Cells were harvested with 0.25% Trysin/EDTA (T1320, Solarbio) and adjusted the cell concentration to 4×10^6 cells/mL with 1×PBS containing 1% FBS buffer. 100 μL cells per well were then plated in the 96-well cell culture plates and incubated with Trop2 antibodies Trop2-1, Trop2-2, Datopotamab, and Sacituzumab, as well as exemplary anti-Trop2 ADCs (ADC-4, ADC-5, ADC-6, ADC-7, ADC-8 and ADC-9) at final concentration 100 nM for seven time points (0, 0.5, 2, 4, 8, 16, and 24 hours). The mixtures were incubated at 4° C. in an atmosphere of 5% CO2 in air. At specific time points, cells were immediately washed twice and suspended in 100 μL cold wash buffer containing 2% paraformaldehyde for 30 mins. Cells were washed twice and then incubated with 1×PE anti-human IgG Fc Antibody (Cat. No. 366904, Biolegend) at 4° C. and 5% CO2 for another one hour. After the two-step washing by washing buffer, cells were re-suspended in 100 μL FACS buffer, CytoFlex Cytometry (Beckman Coulter) was used to detect the fluorescent signals of cells. The internalization ratio at several time points were calculated as the missing rate of MFI values at specific time point in that at 0 hours. Curves of internalization rate versus incubation time (hours) were plotted with the Graphpad Prism Software.

Another series has as its system MCF-7 cells. Description: In vitro cytotoxic assay of anti-Trop2 ADCs (CellTiter-Glo). It counts as cell-based. The settings on record: for Bottom (%): curve fit bottom. As for the experimental part: (§2) In brief, 5,000 cells/well were platted in white clear 96-well assay plates (Cat. No. 6005182, PerkinElmer) (excluding edge wells, which contained medium only) in 90 μL basic culture medium (McCoy's 5a medium for SKBR-3 cells, RPMI-1640 medium for NCI-N87 cells, EMEM medium for MCF-7 cells, and Leibovitz's L-15 medium for MDA-MB-468 cells) containing 10% FBS, I % Penicillin-Streptomycin Solution (BL505A, Biosharp Life Sciences), and 2 mM L-Glutamine (Cat. No. 25030081, ThermoFisher) and were grown at 37° C. in a humidified incubator at 5% CO2 atmosphere. […] After additional 72-hour incubation, plates were removed from incubator and equilibrated to room temperature. After approximately 30 mins, 50 μL of CellTiter-Glo® 2.0 Luminescent Cell Viability Reagent (Cat. No. G7573, Promega) were added to each well. After shaking the plates at 450 rpm for 3 mins followed by 10-min incubation without shaking, luminescence was measure on the Envision plate reader (Equipment No. 2104, PerkinElmer) with integration time of 250 ms per well. Curves of luminescence versus ADC concentration (μM) were fitted with GraphPad Prism Software.
Background: Cellular ATP, detected with luciferase, serves as a proxy for viable cell number.

The test system of the next series is SKBR-3 cells. The series is described as above. The settings on record: for Bottom (%): curve fit bottom; for Top (%): curve fit top. It counts as cell-based. As for the experimental part: as §2
The test system of series [2] is SKBR-3, NCI-N87, MCF-7, and MDA-MB-468 cells. Put plainly: In vitro cytotoxic assays of anti-Trop2 ADCs, statements on all test cell lines. The settings on record: four Trop-2 expressing cell lines, FIG. 6. It is filed as cell-based. As for the experimental part: Cytotoxicity of exemplary free linker-payloads (Compounds 2, 3 and 4), free Trop2 antibodies (Trop2-1, Trop2-2, Datopotamab, and Sacituzumab), exemplary anti-Trop2 ADCs (ADC-4, ADC-5, ADC-6, ADC-7, ADC-8 and ADC-9) and Trodelvy (an anti-Trop2 ADC approved by FDA) as positive control was evaluated on SKBR-3 cells (Breast cancer, ATCC No. HTB30), NCI-N87 cells (Gastric cancer, ATCC No. CRL-5822), MCF-7 cells (Breast cancer, ATCC No. HTB-22), and MDA-MB-468 cells (Breast cancer, ATCC No. HTB-132).
as §2, with “After” for “After additional 72-hour incubation, plates were removed from incubator and equilibrated to room temperature. After approximately 30 mins, 50 μL of CellTiter-Glo® 2.0 Luminescent Cell Viability Reagent (Cat. No. G7573, Promega) were added to each well. After”

The subject of series [3] is HER2 positive SKBR-3 cells. Put plainly: Antibody mediated internalization in HER2 expressing tumor cells, FACS. It counts as cell-based. To be noted: 100 nM. As for the experimental part: (§3) The culture conditions of two cell lines are the same as in Example 18.
as §1, with “(Tl 320,” for “(T1320,”, “100 μL cells per well were then plated in the 96-well cell culture plates and incubated with Trop2 antibodies Trop2-1, Trop2-2, Datopotamab, and Sacituzumab, as well as exemplary anti-Trop2 ADCs (ADC-4, ADC-5, ADC-6, ADC-7, ADC-8 and ADC-9) at final concentration 100 nM for seven time points (0, 0.5, 2, 4, 8, 16, and 24 hours).” left out, “median fluorescence intensity (MFI)” for “MFI”

The test system of series [4] is HER2 positive NCI-N87 cells. The description is as above. It is filed as cell-based. The settings on record: 100 nM. As for the experimental part: as §3
as §1, with “(Tl 320,” for “(T1320,”, “100 μL cells per well were then plated in the 96-well cell culture plates and incubated with Trop2 antibodies Trop2-1, Trop2-2, Datopotamab, and Sacituzumab, as well as exemplary anti-Trop2 ADCs (ADC-4, ADC-5, ADC-6, ADC-7, ADC-8 and ADC-9) at final concentration 100 nM for seven time points (0, 0.5, 2, 4, 8, 16, and 24 hours).” left out, “median fluorescence intensity (MFI)” for “MFI”

The subject of the next series is NCI-N87 cell xenograft. Put plainly: In vivo therapeutic efficacy in NCI-N87 cell xenograft mouse model. The arrangement: species or system BALB/c female nude mice. The settings on record: 5 mg/kg, IV, BIW*3. As for the experimental part: On day 0, NCI-N87 cells (1×10^7 with 1:1 Matrigel) suspended in 0.2 mL PBS supplement with 50% (v/v) matrigel were injected subcutaneously in the right upper flank of 6- to 8-wk-old BALB/c female nude mice (purchased from Beijing Vital River Laboratory Animal Technology Co., Ltd). On day 6, mice were randomized to 8 groups (n=6) when the average tumor volume was 178 mm^3. Treatments were initiated on the very same day (defined as PG-D0). Mice at Trodelvy group received 5.0 mg/kg (i.v., BIW) for 3 wk; mice at the ADC-5 treatment groups were injected with 1.0, 2.5, and 5.0 mg/kg (i.v., BIW) ADC-5 for 3 wk; mice at ADC-6 treatment groups were injected (i.v.) with 1.0 and 2.5 mg/kg ADC-6 weekly (QW) for three doses, or 5.0 mg/kg (single dose at day PG-D0). The tumor volumes and body weights were measured and recorded twice a week. On the termination day 28 (defined as PG-D28), tumor weight were dissected and measured. Tumor growth inhibition rate (%) was calculated as (TVCR−TVTR)/TVCR (%), where TVCR and TVTR are the relative tumor volumes of the vehicle control group and the experimental groups, respectively. Mice were euthanized and deemed to have succumbed to disease once tumors grew greater than 2,500 mm^3. GraphPad Prism 6.0 Software was used for statistical analysis with a one-way ANOVA.

For another series, the system named is NCI-N87 cells. Put plainly: In vitro cytotoxic assay of anti-Trop2 ADCs (CellTiter-Glo). It counts as cell-based. As for the experimental part:
as §2

The next series has as its system MDA-MB-468 cells. The series is described as above. It is filed as cell-based. As for the experimental part: as §2
Where [5] appears, read: 72-hour incubation, read-out: ReIC50.

As for Sacituzumab: free Trop2 antibody, the “MFI value of internalization assay” value in [1] (0 h) is 216386; in series [1] (0.5 h), 205198.9; in series [1] (2 h), 90975.5; in series [1] (4 h), 75749.9; in [1] (8 h) it was 47695.7; in [1] (16 h), 33528.1. In series [1] (24 h), the “MFI value of internalization assay” value stood at 32475. The “Bottom (%)” value in the series on MCF-7 cells is reported as 0%; in the series with SKBR-3 cells, 3.225%. Moreover, the “Top (%)” value in the series on SKBR-3 cells came to 9.741%. The “cytotoxic activity on the test cell lines” value in series [2] is on record as “no target cell killing effect”.

As for T-DM1, the “MFI value of internalization assay” value in [3] (0 h) came to 89030.9; in series [3] (0.5 h), 54683.9; in series [3] (2 h), 51777.7; in series [3] (4 h), 39019.6; in [3] (8 h) it was 31583.1; in series [3] (16 h), 29393.7. For the same molecule, the “MFI value of internalization assay” value is on record as 20671.3 in [3] (24 h); 455385 in [4] (0 h); 452742.7 in [4] (0.5 h); 475100.1 in [4] (2 h); 369328.5 in series [4] (4 h); 345220.2 in series [4] (8 h). Also, the “MFI value of internalization assay” value in [4] (16 h) turned out to be 362105.3; in [4] (24 h), 317532.7.

For Trodelvy, in the series with NCI-N87 cell xenograft (Day 3), the “TGI (%) in days after administration, Day 3” value is listed as 44.83%. Moreover, in the series on NCI-N87 cell xenograft (Day 7), the “TGI (%) in days after administration, Day 7” value worked out at 44.43%. Also, in the series with NCI-N87 cell xenograft (Day 10), the “TGI (%) in days after administration, Day 10” value came out at 39.67%. In addition, the “TGI (%) in days after administration, Day 14” value with NCI-N87 cell xenograft (Day 14) turned out to be 42.59%. For the same molecule, in the series on NCI-N87 cell xenograft (Day 17), the “TGI (%) in days after administration, Day 17” value came out at 49.05%. Further, the “TGI (%) in days after administration, Day 21” value with NCI-N87 cell xenograft (Day 21) is on record as 55.07%. Besides, the “TGI (%) in days after administration, Day 24” value with NCI-N87 cell xenograft (Day 24) turned out to be 55.32%. Besides, the “TGI (%) in days after administration, Day 28” value in the series on NCI-N87 cell xenograft (Day 28) is listed as 54.53%. Also, the IC50 in the series with MCF-7 cells (setting [5]) amounted to 40.5 nM; in the series with SKBR-3 cells (setting [5]), 0.846 nM; with NCI-N87 cells (setting [5]), 5.39 nM; in the series on MDA-MB-468 cells (setting [5]), 2.33 nM. Moreover, the “Bottom (%)” value with MCF-7 cells, in the series on SKBR-3 cells, with NCI-N87 cells (curve fit bottom) and with MDA-MB-468 cells (curve fit bottom) was 0% each time. Also, the “Top (%)” value in the series on MCF-7 cells (curve fit top) was 35.94%; in the series with SKBR-3 cells, 78.16%; in the series on NCI-N87 cells (curve fit top), 76.68%; with MDA-MB-468 cells (curve fit top), 79.13%.

B1: Datopotamab: native human IgG1 antibody of DS-1062 from Daiichi Sankyo, free antibody control (antibody, chains of the INN, looked up, V domains shown)
VH: QVQLVQSGAEVKKPGASVKVSCKASGYTFTTAGMQWVRQAPGQGLEWMGWINTHSGVPKYAEDFKGRVTISADTSTSTAYLQLSSLKSEDTAVYYCARSGFGSSYWYFDVWGQGTLVTVSS
VL: DIQMTQSPSSLSASVGDRVTITCKASQDVSTAVAWYQQKPGKAPKLLIYSASYRYTGVPSRFSGSGSGTDFTLTISSLQPEDFAVYYCQQHYITPLTFGQGTKLEIK
As for B1, the “MFI value of internalization assay” value is recorded as 237324.4 in [1] (0 h); 112896.1 in series [1] (0.5 h); 41192.3 in [1] (2 h); 33418.6 in [1] (4 h); 19928.3 in [1] (8 h); 14134.9 in [1] (16 h). Besides, in [1] (24 h), the “MFI value of internalization assay” value was 8497.3.
